Test results published in US12390460B2, “Treatment for obesity” (1GLOBE BIOMEDICAL CO., LTD., priority 2018, dated 2025).

Key:
[1] = Body weight, food/water intake and adverse effects in modified high-fat diet (HFD) obese mice; type: in vivo, C57B1/6J mice
Text: In order to assess the in vivo efficacy of Compound 14-3, a preferred embodiment of the compound of the invention, in treating and ameliorating obesity and related diseases like the metabolic syndrome, a previously used modified high-fat diet (HFD) was employed to induce obesity and severe fatty liver disease in mice (Derdak et al. J of Hepatology 2013; 58(4):785-91).
Five-week-old male, C57B1/6J mice (12-18 per group, Jackson Laboratory, Bar Harbor, ME) were fed ad libitum with a modified high-fat or control diet (Bioserv, Frenchtown, NJ) for 15 weeks. […] We had verified the efficacy of this diet to induce obesity in various pilot studies. At the end of the 15-week long feeding regimen, this diet caused substantial weight gain in these mice.
After 15 weeks on the modified HFD, the mice were put on a Compound 14-3 (or control vehicle) dosing regimen, in which the introductory 5 mg/kg (p.o., t.i.w. for the first 3 weeks) dose was followed by the administration of 10 mg/kg (p.o., t.i.w. for an additional 5 weeks) therapeutic dose. During the course of the drug treatment, the animals were monitored daily for changes in body weight, food/water intake, and any adverse effects.

[2] = system: UCP1 and DIO2 in brown adipose tissue (BAT); assay: Quantitative real-time PCR of markers of thermogenic brown adipose tissue activation; type: in vivo; settings: HFD-fed mice, vs vehicle; FIG. 2C
Text: Finally, the recruitment of brown adipose tissue (BAT) was examined. BAT is a well-know site for dissipating excess energy to prevent weight gain by inducing thermogenesis. Importantly, the expression levels of the two investigated markers of thermogenic BAT activation—UCP1 and DIO2—were not different in the two HFD-fed groups when measured by quantitative real-time PCR (FIG. 2C), indicating similar levels of BAT activation in response to HFD. These findings led us to conclude that for the weigh loss seen in the Compound 14-3-treated HFD-fed mice, other mechanisms are probably responsible.

[3] = system: white adipose tissue adipocytes; assay: H & E staining and morphometry of eWAT and iWAT adipocytes; type: in vivo; settings: HFD-fed mice
[4] = system: genes involved in lipid transport and degradation, beta-oxidation, de novo lipogenesis, and insulin sensitivity (RORA, ACADM, ACOX1, MLYCD, PEPCK); assay: Gene expression in visceral fat (eWAT); type: in vivo; settings: HFD-fed mice
Text: To get a more detailed insight into the metabolic changes caused by the Compound 14-3 treatment in the visceral fat (eWAT), the expression of genes involved in lipid transport and degradation, beta-oxidation, de novo lipogenesis, and insulin sensitivity were examined.
Acyl-Coenzyme A dehydrogenase, C-4 to C-12 straight chain (ACADM, FIG. 6B) is known to be important for the degradation of medium chain fatty acids.
Similarly, malonyl CoA decarboxylase (MLYCD, FIG. 6D) has been induced by the Compound 14-3 treatment. This event is linked to decreased malonyl CoA synthesis and the suppression of de novo lipogenesis by Compound 14-3.

liver = assay: Liver size, appearance and liver/body weight ratio (NAFLD) in HFD-fed mice; type: in vivo
Text: The enlarged liver appeared pale yellow consistent with fatty metamorphosis. […] The beneficial effect on liver size and appearance was consistent as a part of overall improvement in metabolic properties after Compound 14-3 treatment.

[5] = mice, 5 then 10 mg/kg p.o. t.i.w.

With CCN(CC)CCNC(=O)c1c(C)[nH]c(/C=C2\C(=O)Nc3ccc(-c4csc(-c5ccccc5)n4)cc32)c1C [Compound 14-3] the “daily normalized caloric (food) intake” value ([1]; HFD-fed mice during treatment, FIG. 1C) was “not linked to decreased food intake”, the “daily normalized water intake” value ([1]; HFD-fed mice during treatment, FIG. 1D) was “not linked to decreased” and the “change in body weight during treatment” value ([1]; HFD-fed mice, 5 mg/kg p.o. t.i.w. 3 weeks then 10 mg/kg p.o. t.i.w. 5 weeks, FIG. 1A) was “not only prevented additional weight gain in the mice on HFD, but also triggered a gradual weight loss”. For the same compound, the “difference in body weight vs control-vehicle-treated mice on HFD at the time of euthanasia” value ([1]; HFD-fed mice, 5 then 10 mg/kg p.o. t.i.w., 8 weeks, FIG. 1B) was about 20%, the behaviors or activities [1, 5] was “No changes in behaviors or activities were observed” and the side effects [1, 5] was “temporary, self-resolving, mild diarrhea seen in a couple of mice at the initiation of drug treatment”. The “DIO2 expression level in BAT” value [2] was “not different”, the “UCP1 expression level in BAT” value [2] was “not different” and the “size of eWAT adipocytes” value ([3]; H & E staining of eWAT, FIG. 4A-4B) was “decrease in the size of adipocytes”. The “size of iWAT adipocytes” value ([3]; H & E staining of iWAT, morphometry, FIG. 5A-5B) was “decrease in size of adipocytes”, the “RORA expression in eWAT” value ([4]; FIG. 6A) was “significantly increased” and the “ACADM gene expression in eWAT” value ([4]; FIG. 6B) was “Increased”. The “ACOX1 expression in eWAT” value ([4]; FIG. 6C) was “increased”, the “MLYCD expression in eWAT” value ([4]; FIG. 6D) was “induced” and the “PEPCK gene expression in eWAT” value ([4]; FIG. 6E) was “comparable to that of the control-fed mice”. For the same compound, the NAFLD (liver; FIG. 8A) was “marked improvement”, the “size of the liver” value (liver; FIG. 8A) was “markedly decreased” and the liver/body weight ratio (liver; FIG. 8B) was “lower”.
